SMILES strings stand for the structures.

The values below come from patent publication EP3132692A1, “Compositions comprising small molecular inhibitors suitable to inhibit and stimulate signaling pathways in a manner leading to prevention of muscle atrophy” (priority 2015, dated 2017).

Data set [1] concerns aged men. The conditions noted are these: treatment for 7 days; cited from earlier work.
Data set [2] deals with resistance trained men. The data set can be described thus: Strength measures: 1-repetition maximum (1-RM) bench press and squat, efficacy study. It is filed as in vivo.
In data set [3] the test system is resistance trained men. As to the kind of experiment: Total creatine kinase as marker of muscle damage, efficacy study. It is filed as in vivo. The method, then:
In the efficacy study, 18 resistance trained men with at least 5 years of experience in weight lifting voluntarily participated. Participants were divided in 3 equal groups; receiving placebo (hypromellose, 2 times a day), (-)-epicatechin ((EPI), 2x 150 mg a day) and (-)-epicatechin combined with hesperetin and myricetin ((E+H+M), 2x 150+100+50 mg a day). Maximally trained individuals were chosen as further muscle gains in such groups are usually minimal, even with dietary interventions. This is primarily explained due to a fact that such trained individuals reached so called "natural genetic plateau" where muscle tissue works within physiological optimum defined by the genetic blueprints, so even radical interventions (except anabolic steroids) and exercise regime cannot bring significant results. This was confirmed by participants as they had no means to achieve particularly better results over last few years of exercise. All subjects were asked to maintain the same caloric intake during 12 week study 5 days a week exercise. […]
Body composition was examined at the beginning and the end of study using dual energy x-ray absorptiometry - DEXA scans (DiscoveryTM by Hologic). Total body estimates of fat and non-bone lean tissue were determined according to company supplied algorithms. […]

Data set [4] concerns resistance trained men. The data set can be described thus: Muscle thickness by B-mode ultrasound imaging, efficacy study. It is filed as in vivo. The method, then:
(§1) In the efficacy study, 18 resistance trained men with at least 5 years of experience in weight lifting voluntarily participated. Participants were divided in 3 equal groups; receiving placebo (hypromellose, 2 times a day), (-)-epicatechin ((EPI), 2x 150 mg a day) and (-)-epicatechin combined with hesperetin and myricetin ((E+H+M), 2x 150+100+50 mg a day). Maximally trained individuals were chosen as further muscle gains in such groups are usually minimal, even with dietary interventions. This is primarily explained due to a fact that such trained individuals reached so called "natural genetic plateau" where muscle tissue works within physiological optimum defined by the genetic blueprints, so even radical interventions (except anabolic steroids) and exercise regime cannot bring significant results. This was confirmed by participants as they had no means to achieve particularly better results over last few years of exercise. All subjects were asked to maintain the same caloric intake during 12 week study 5 days a week exercise. During 2 months study participants were taking 30 g of post exercise amino acid blend (whey, soy and casein protein) with following profile per 100 g: • Alanine 7.1g, arginine 9.2 g, aspartic acid 6.2 g, glutamic acid 21.5 g, glycine 12.2 g, histidine 1.1 g, isoleucine 6.9 g, leucine 11.1 g, methionine 0.3 g, phenylalanine 2.7 g, proline 11.2 g, serine 2.7 g, threonine 1.5 g, tyrosine 0.5 g and valine 5.8 g.
(§2) Body composition was examined at the beginning and the end of study using dual energy x-ray absorptiometry - DEXA scans (DiscoveryTM by Hologic). Total body estimates of fat and non-bone lean tissue were determined according to company supplied algorithms. Muscle thickness for Vastus lateralis and Triceps brachii lateralis was examined at the beginning and the end of study by B-mode ultrasound imaging (Toshiba PowerVision 8000) as the distance between the subcutaneous adipose tissue and inter-muscular belly interface. Total Cretine Kinase as a marker of muscle damage was performed by VITROS® 4600 (Ortho Clinical Diagnostics) at the beginning and the end of study.

Data set [5] in a line: Body composition by dual energy x-ray absorptiometry (DEXA), efficacy study. It is filed as in vivo, men. Here is the method: as §1, §2
Data set [6] deals with T1, PPARγ (Homo sapiens, UniProt P37231).
T1 sequence (P37231 1-505): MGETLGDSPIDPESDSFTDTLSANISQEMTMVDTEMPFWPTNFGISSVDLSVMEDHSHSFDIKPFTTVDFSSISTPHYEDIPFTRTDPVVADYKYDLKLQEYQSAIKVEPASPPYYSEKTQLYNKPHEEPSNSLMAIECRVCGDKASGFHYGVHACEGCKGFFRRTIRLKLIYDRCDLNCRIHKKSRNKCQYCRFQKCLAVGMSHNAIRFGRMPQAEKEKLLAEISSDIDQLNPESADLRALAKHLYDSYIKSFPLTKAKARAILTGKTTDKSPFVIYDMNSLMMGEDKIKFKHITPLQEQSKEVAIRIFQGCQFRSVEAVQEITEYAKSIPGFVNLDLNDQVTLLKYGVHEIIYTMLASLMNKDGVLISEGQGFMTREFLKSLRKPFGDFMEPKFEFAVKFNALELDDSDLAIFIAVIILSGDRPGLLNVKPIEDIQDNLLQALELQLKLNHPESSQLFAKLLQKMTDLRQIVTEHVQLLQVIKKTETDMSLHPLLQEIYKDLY
The following applies: cited from earlier work.

Data set [7] deals with TGFβ-II receptor (Homo sapiens, UniProt P37173). The following applies: 100µM; cited from earlier work.
Data set [8] has as its target T2, PPARα (Homo sapiens, UniProt Q07869).
T2 sequence (Q07869 1-468): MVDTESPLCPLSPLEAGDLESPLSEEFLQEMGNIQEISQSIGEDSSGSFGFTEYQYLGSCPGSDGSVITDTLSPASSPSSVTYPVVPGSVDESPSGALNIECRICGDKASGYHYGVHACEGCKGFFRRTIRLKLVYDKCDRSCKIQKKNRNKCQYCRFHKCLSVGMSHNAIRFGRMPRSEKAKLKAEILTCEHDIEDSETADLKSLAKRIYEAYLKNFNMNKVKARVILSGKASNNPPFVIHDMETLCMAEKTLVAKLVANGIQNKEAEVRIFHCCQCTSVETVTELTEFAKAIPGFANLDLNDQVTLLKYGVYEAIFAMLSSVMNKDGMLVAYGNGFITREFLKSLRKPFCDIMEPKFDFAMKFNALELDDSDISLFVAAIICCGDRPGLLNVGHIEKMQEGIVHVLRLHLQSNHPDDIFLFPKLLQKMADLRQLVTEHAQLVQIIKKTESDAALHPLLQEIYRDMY
The conditions noted are these: cited from earlier work.

Data set [9] deals with PDE4 isomer. The following applies: cited from earlier work.
Data set [10] has as its system UGT enzymes. The following applies: after absorption; cited from earlier work.
For data set [11] the following is noted: via orange juice alongside 150 mL yogurt; cited from earlier work.
Data set [12] relates to myoblast C2C12 cells. The following applies: 100µM; low mitogen medium; cited from earlier work.
Data set [13] has as its system mice subjected to freeze injury (tibialis). The conditions noted are these: injections at 50mg/kg for six days; relative to control; cited from earlier work.
Data set [14] deals with human DNA topoisomerase II (topo II). The conditions noted are these: cited from earlier work.
The subject of data set [15] is C. Elegans. The conditions noted are these: cited from earlier work.
Setting [16] is: BEGGINING of study, resistance trained men.
Setting [17] is: END of 12 week study, EPI 2x 150 mg a day, E+H+M 2x 150+100+50 mg a day.

TGFβ-II receptor, sequence (P37173 23-567): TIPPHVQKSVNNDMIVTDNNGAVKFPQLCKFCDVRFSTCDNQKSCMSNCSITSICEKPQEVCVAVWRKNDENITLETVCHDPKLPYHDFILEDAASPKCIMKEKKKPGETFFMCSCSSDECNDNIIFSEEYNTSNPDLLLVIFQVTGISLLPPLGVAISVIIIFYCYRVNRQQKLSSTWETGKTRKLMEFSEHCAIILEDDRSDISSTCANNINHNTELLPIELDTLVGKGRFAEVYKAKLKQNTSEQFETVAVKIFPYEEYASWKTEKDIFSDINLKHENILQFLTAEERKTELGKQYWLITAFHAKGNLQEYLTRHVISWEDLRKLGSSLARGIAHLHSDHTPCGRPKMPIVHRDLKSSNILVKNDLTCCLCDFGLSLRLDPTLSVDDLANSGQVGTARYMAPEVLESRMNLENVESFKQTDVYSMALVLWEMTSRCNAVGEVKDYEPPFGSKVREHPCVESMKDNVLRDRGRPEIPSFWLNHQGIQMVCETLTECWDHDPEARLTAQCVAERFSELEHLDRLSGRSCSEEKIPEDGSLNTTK

`Oc1cc(O)c2c(c1)O[C@H](c1ccc(O)c(O)c1)[C@H](O)C2` [EPI, (-)-epicatechin]: in data set [1], the hand grip strength result was “increases” and the “ratio of plasma follistatin/myostatin” value is recorded as “increases”. Also, in [2] (setting [16]), the “1- RM BENCH PRESS” value came to 148±21 and the “1-RM SQUAT” value worked out at 153 ± 24 kg. The “1-RM SQUAT” value in [2] (setting [17]) worked out at 170 ± 22 kg. In data set [3] (setting [16]), the “Total Creatine Kinase (CK reff range: 38-120 ng/ml)” value came out at 86 ± 24 ng/mL. Also, the “Total Creatine Kinase (CK reff range: 38-120 ng/ml)” value in data set [3] (setting [17]) worked out at 73 ± 16 ng/mL. For the same compound, in [4] (setting [16]), the “Triceps Brachii Lateralis thickness” value is reported as 30.8±4.4 mm and the “Vastus Lateralis thickness” value came to 23.8±3.9 mm. In addition, in data set [4] (setting [17]), the “Triceps Brachii Lateralis thickness” value is on record as 33.8±2.2 mm and the “Vastus Lateralis thickness” value stood at 24.6±2.9 mm. In [5] (setting [16]), this compound returned a Body fat of 11.2 ± 5.3 kg, a Body mass of 93.2 ± 14.6 kg and a Lean body mass of 76.4 ± 5.8 kg. In [5] (setting [17]), this compound showed a Body fat of 9.1 ± 4.2 kg, a Body mass of 93.8 ± 10.5 kg and a Lean body mass of 77.2 ± 5.8 kg.
For orientation: IC50 means the concentration needed to halve the response being measured. For `COc1ccc(C2CC(=O)c3c(O)cc(O)cc3O2)cc1O` (stereo not shown) [hesperetin, 5,7,3'-trihydroxy-4'-methoxyflavanone], the “concentration range of concentration dependent stimulation of PPARγ activity” value in [6] was 20 to 160 µM. For the same compound, the “ability of a ligand to associate with the TGFβ-II receptor” value in [7] is “approximately halve”. In addition, the “concentration range of concentration dependent stimulation of PPARα activity” value in data set [8] was 20 to 160 µM. Besides, the IC50 in data set [9] was 28.2 ± 1.1 µM.
For `COc1ccc(C2CC(=O)c3c(O)cc(OC4OC(COC5OC(C)C(O)C(O)C5O)C(O)C(O)C4O)cc3O2)cc1O` (stereo not shown) [hesperidin, hesperetin-7-O-rutinoside], in [10], the “found as hesperetin monoglucuronide” value is listed as “up to 87%” and the found as sulphoglucuronides is 13%. Also, in data set [11], the “reduction of Cmax of the main metabolite (hesperitin-7-O-glucuronide)” value is 29% and the “reduction of overall exposure (AUC) of the main metabolite” value was 27%. Moreover, the myocyte differentiation entry in data set [12] is reported as “able to promote myocyte differentiation”. The muscle regenerative capabilities result in [13] is on record as “significantly enhanced”.
As to `O=c1c(O)c(-c2cc(O)c(O)c(O)c2)oc2cc(O)cc(O)c12` [myricetin], in data set [14], the IC50 is 27.5 µM. In data set [15] (C. Elegans), the “prolongation of average lifespan” value is 18% and the “prolongation of maximal lifespan” value is given as 21.7%. Also, the “increase of average lifespan” value in data set [15] (mev-1(kn1) mutants) was 16%.
